From patent US9399070B2, “Compositions comprising a polymeric reagent and a pharmacologically active agent” (Nektar Therapeutics, priority 2003, dated 2016)

Tests used:
NB2-11 cells = assay: NB2-11 rat lymphoma cell proliferation assay; conditions: in vitro; based on determined protein content; unmodified hGH = 100% bioactivity; preliminary
Experimental: The biological activity of hGH and the conjugates described in Table 1 was assessed in vitro using an NB2-11 rat lymphoma cell proliferation assay. Briefly, NB2-11 cells derived from a rat lymphoma were incubated with hGH, which leads to binding of the hGH molecule to its receptor on the cell surface. Receptor binding induces the signal transduction cascade, which results in proliferation of the cells. Assay results were based on determined protein content, and a 100% bioactivity of unmodified hGH.

hypophysectomized rat = assay: in vivo bioassay, weight gain in hypophysectomized rat (USP monograph for Somatotropin); conditions: for increase of weight (day 8): single high dose of 110 μg on day 1, day 8
Experimental: Conjugates 1M and 1D were further evaluated in a preliminary in vivo bioassay (hypophysectomized rat, USP monograph for Somatotropin®). Six groups of each of five animals received either hGH, 1M, 1D, or placebo in different dosing regimes. Weight gain as a pharmacodynamic output was measured on day 1, 3, 6, and 8.
The results of the experiment are summarized in FIG. 4 (weight gain following day 8) and FIG. 5 (weight gain over time course of study). […] Daily dosing of 5 μg of the hGH standard induced an overall weight gain of 4% on day 8, whereas the single high dose of 110 μg of 1M and ID produced an increase of weight of 7% and 9% respectively (FIG. 4).

| Substance | Activity, % (NB2-11 cells) | increase of weight (day 8) (hypophysectomized rat) | other results |
| --- | --- | --- | --- |
| mono(mPEG-2-ButyrALD-40k) hGH [Sample 4M] | 2.5% | – | – |
| hGH: Native, recombinant human growth hormone, unmodified | – | – | overall weight gain on day 8 (hypophysectomized rat; daily dosing of 5 μg (cumulative 35 μg), day 8): 4%; weight gain during the eight days (hypophysectomized rat; single high dose (110 μg, day 1)): no or moderate weight gain |
| di(mPEG-2-NHS-40k) hGH [Sample 1D] | 0.4% | 9% | animal death in study group (hypophysectomized rat; 1D bolus group, single dose 110 μg, five animals per group): death of one animal |
| mono(mPEG-2-NHS-40k) hGH [Sample 1M] | – | 7% | – |
| di(mPEG-2-ButyrALD-40k) hGH [Sample 4D] | 0.2% | – | – |
